Active and inactive are the calls of the source. The rule behind the calls is not given here.

One test deals with Staphylococcus aureus. The experiment in a line: Minimum inhibitory concentration, that inhibits growth of Staphylococcus aureus in the presence of subinhibitory (30 ug/mL) Berberine Inactive. Format: functional, organism-based.
Turning to `COc1cc([C@H]2Oc3cc(-c4oc5cc(OC(C)=O)cc(OC(C)=O)c5c(=O)c4OC(C)=O)ccc3O[C@@H]2COC(C)=O)ccc1OC(C)=O`, the IA result was “inactive”.

In another test the test system is Staphylococcus aureus. The experiment in a line: Minimum inhibitory concentration, that inhibits growth of Staphylococcus aureus in the presence of subinhibitory (30 ug/mL) Berberine. Format: functional.
Regarding `COc1cc([C@H]2Oc3cc(-c4cc(=O)c5c(O)cc(O)cc5o4)ccc3O[C@@H]2CO)ccc1O` [HYDNOCARPIN], the MIC was determined as 0.1 µg/mL. Consider `COc1cc([C@H]2Oc3cc(-c4cc(=O)c5c(O)cc(O)cc5o4)ccc3O[C@@H]2CO)cc(OC)c1O`, for which the MIC stood at 8 µg/mL. With `COc1ccc(-c2cc(=O)c3ccccc3o2)cc1OC` [3',4'-DIMETHOXYFLAVONE], the MIC was determined as 6.3 µg/mL. As to `COc1cc([C@H]2Oc3ccc(-c4cc(=O)c5c(O)cc(O)cc5o4)cc3O[C@@H]2CO)cc(OC)c1O`, the MIC was 7.8 µg/mL. Turning to `COc1cc([C@H]2Oc3cc(-c4cc(=O)c5c(OC(C)=O)cc(OC(C)=O)cc5o4)ccc3O[C@@H]2COC(C)=O)ccc1OC(C)=O`, the MIC came to 0.1 µg/mL. Turning to `O=c1cc(-c2ccccc2)oc2cc(O)cc(O)c12` [CHRYSIN], the MIC is 25 µg/mL. As for `COc1cc([C@@H]2Oc3ccc4c(=O)cc(-c5ccccc5)oc4c3O[C@H]2CO)ccc1O`, the MIC worked out at 1.9 µg/mL. Regarding `COc1cc([C@H]2Oc3cc(-c4cc(=O)c5ccccc5o4)ccc3O[C@@H]2CO)ccc1O`, the MIC was determined as 0.08 µg/mL.

Consider `C=CCOc1ccc(-c2cc(=O)c3ccccc3o2)cc1`, for which the MIC was found to be 6.3 µg/mL. Turning to `COc1cc([C@@H]2Oc3ccc4c(=O)cc(-c5ccc(O)cc5)oc4c3O[C@H]2CO)ccc1O`, the MIC came to 0.6 µg/mL. Regarding `CCCOc1ccc(-c2cc(=O)c3ccccc3o2)cc1`, the MIC is 0.4 µg/mL. The same measure, in the same setting: then `COc1cc([C@H]2Oc3cc([C@@H]4CC(=O)c5c(O)cc(O)cc5O4)cc(OC)c3O[C@@H]2CO)ccc1O`, with 1.9 µg/mL; and `COc1cc([C@H]2Oc3cc(-c4oc5cc(O)ccc5c(=O)c4O)ccc3O[C@@H]2CO)ccc1O`, with 163 µg/mL. In the case of `COc1ccc(-c2cc(=O)c3ccccc3o2)cc1` [4'-METHOXYFLAVONE], the MIC worked out at 6.3 µg/mL.

For the compound `COc1ccc(-c2cc(=O)c3c(O)cc(O)cc3o2)cc1O` [DIOSMETIN], the MIC came out at 15 µg/mL.

For the compound `CCOc1ccc(-c2cc(=O)c3ccccc3o2)cc1`, the MIC was found to be 1.6 µg/mL. The same measure, in the same setting: for `O=c1cc(-c2ccc(OCCO)cc2)oc2ccccc12` the value was 25 µg/mL; for `COc1cc([C@H]2Oc3cc(-c4cc(=O)c5c(O)cc(O)cc5o4)cc(OC)c3O[C@@H]2CO)ccc1O`, 2 µg/mL; for `COc1cc([C@H]2Oc3cc([C@H]4Oc5cc(O)cc(O)c5C(=O)[C@@H]4O)ccc3O[C@@H]2CO)ccc1O` [SILYBIN A], 12.5 µg/mL. Turning to `COc1cc(OC)c2c(=O)cc(-c3ccccc3)oc2c1` [CHRYSIN DIMETHYL ETHER], the MIC was found to be 25 µg/mL. In the case of `COc1cc([C@H]2Oc3cc([C@@H]4CC(=O)c5c(O)cc(O)cc5O4)ccc3O[C@@H]2CO)ccc1O`, the MIC was 3.1 µg/mL. Same read-out and setting: for `COc1cc([C@H]2Oc3cc([C@@H]4CC(=O)c5c(OC(C)=O)cc(OC(C)=O)cc5O4)ccc3O[C@@H]2COC(C)=O)ccc1OC(C)=O` the value was 1.6 µg/mL.

With `CC(C)Oc1ccc(-c2cc(=O)c3ccccc3o2)cc1`, the MIC is 1.9 µg/mL.

Turning to `COc1cc([C@H]2Oc3ccc(-c4cc(=O)c5c(O)cc(O)cc5o4)cc3O[C@@H]2CO)ccc1O`, the minimal inhibitory concentration (MIC) worked out at 3.1 µg/mL. Still for that read-out and setting: then `COc1cc([C@H]2Oc3cc(-c4cc(=O)c5ccc(O)cc5o4)ccc3O[C@@H]2CO)ccc1O`, with 0.8 µg/mL; and `COc1cc([C@H]2Oc3cc(-c4cc(=O)c5ccc(OC(C)=O)cc5o4)ccc3O[C@@H]2COC(C)=O)ccc1OC(C)=O`, with 1.6 µg/mL.

The next test has as its system Staphylococcus aureus. Kind of test: Minimum inhibitory concentration, that inhibits growth of Staphylococcus aureus in the presence of subinhibitory (30 ug/mL) Berberine; Inactive. It counts as functional, organism-based.
With `O=c1cc(-c2ccc(O)c(O)c2)oc2cc(O)cc(O)c12`, the IA entry is “inactive”.

`O=c1cc(-c2ccc(O)c(O)c2)oc2cc(O)ccc12`: the IA entry was “inactive”. For `CC(=O)Oc1ccc2c(=O)cc(-c3ccc(OC(C)=O)c(OC(C)=O)c3)oc2c1`, the IA result is “inactive”. On the same count and under the same terms, for `O=c1cc(-c2ccc(O)cc2)oc2ccccc12` the value was “inactive”; for `O=c1cc(-c2ccc3c(c2)O[C@H](c2ccc(O)cc2)[C@@H](CO)O3)oc2cc(O)cc(O)c12`, “inactive”. Take `O=c1c(O)c(-c2ccc(O)c(O)c2)oc2cc(O)cc(O)c12`: the IA entry was “inactive”. In the case of `O=c1cc(-c2ccc(O)cc2)oc2c(O)c(O)ccc12`, the IA entry was “inactive”. Regarding `O=c1cc(-c2ccc(OCc3ccccc3)cc2)oc2ccccc12`, the IA result was “inactive”. On the same count and under the same terms, then `COc1cc([C@H]2Oc3cc(-c4oc5cc(O)cc(O)c5c(=O)c4O)ccc3O[C@@H]2CO)ccc1O`, with “inactive”; and `COc1cc(OC)c2c(=O)cc(-c3ccc(OC)c(OC)c3)oc2c1`, with “inactive”; and `O=c1cc(-c2ccccc2)oc2c(O)c(O)ccc12`, with “inactive”. In the case of `CC(=O)Oc1cc(OC(C)=O)c2c(=O)cc(-c3ccc(OC(C)=O)c(OC(C)=O)c3)oc2c1`, the IA result is “inactive”. Same read-out and setting: then `CCCCCCCCCOc1ccc(-c2cc(=O)c3ccccc3o2)cc1`, with “inactive”.

Values taken from ChEMBL document CHEMBL1134610, “Flavonolignan and flavone inhibitors of a Staphylococcus aureus multidrug resistance pump: structure-activity relationships” (2001).
